According to patent publication US20120164674A1, “DEVICES AND WASHES FOR BIOMARKER STABILIZATION” (priority 2010, published 2012):

Key:
peroxidase = test: Peroxidase assay in saliva (Amplex Red); type: biochemical; details: 500 ppm, 30 minutes, FIGS. 26-29
Galactose Oxidase = details: dilute (3.5%) saliva; FIG. 13
Lysozyme = target: T1, Lysozyme (Homo sapiens, UniProt P61626); test: Lysozyme inhibition saliva screening (fluorescein-labeled Micrococcus lysodeikticus); type: biochemical; details: for inhibition of Lysozyme: 100% saliva samples (data not shown); for RFU Reading (60 mins): saliva, test compound prepared at 5,000 ppm; for Lysozyme Inhibitor Activity: dilute (3.5%) saliva, FIG. 12
T1 construct: from tissue; host or cells: saliva (3.5% dilute or 100%)
T1 sequence (P61626 19-148): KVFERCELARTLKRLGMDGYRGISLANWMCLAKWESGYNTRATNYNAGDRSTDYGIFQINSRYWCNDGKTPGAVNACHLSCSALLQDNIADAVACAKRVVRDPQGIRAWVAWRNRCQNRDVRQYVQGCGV
Source text: At least one assay used for the detection of […], as used herein includes the use of a Micrococcus lysodeikticus labeled with fluorescein. The assay measures lysozyme activity on Micrococcus lysodeikticus cell walls, which are labeled to such a degree that the fluorescence is quenched. Lysozyme activity can relieve this quenching; yielding increased fluorescence that is proportional to lysozyme activity.
For the assay, test compounds are mixed with saliva, prior to the addition of lysozyme substrate. The test compounds, such as GRAS materials, are prepared at a concentration of 5,000 ppm in distilled water. Following this preparation, 50 μl of lysozyme substrate at 1 mg/ml (Molecular Probes EnzChek Lysozyme Assay Kit) that has been pre-heated to 37° C. is added to 50 μl of the test compound. To initiate the assay, 50 μl of a dilute (3.5%) or full strength (100%) saliva solution is added to the mixture. Following the initiation, each mixture is measured at 1 minute intervals using a spectrophotometer (such as Molecular Devices M5 reader) for absorption at 494 nm and fluorescence emission at 518 nm. Temperatures of the mixtures are kept constant at 37° C. during the assay.
A series of GRAS compounds were tested using the Lysozyme assay protocol described above. […] Further details of these five compounds may also be seen in Table 5.

protease = details: cited from earlier work

In the case of COc1ccc(O)c(C(C)(C)C)c1 [CDI-039, 3-tert--butyl-hydroxyanisole], the peroxidase inhibition (peroxidase) is reported as “significant peroxidase inhibition capabilities” and the “Galactose Oxidase Inhibitor Activity” value (Galactose Oxidase) is reported as “shown to have Galactose Oxidase Inhibitor Activity”.

With O=C(O)c1ccccc1 [CDI #16, Benzoic acid] the peroxidase inhibition (peroxidase) was “significant peroxidase inhibition capabilities”.

For Cn1c(=O)c2c(ncn2C)n(C)c1=O [CDI #33, Caffeine], the peroxidase inhibition (peroxidase) was “significant peroxidase inhibition capabilities”.

In the case of O=C(O)c1ccccc1 [CDI-40, Benzoic acid], the “inhibition of Lysozyme” value (Lysozyme) is reported as “shown to inhibit Lysozyme”, the “RFU Reading (60 mins)” value (Lysozyme) is reported as 35.82 RFU and the “Lysozyme Inhibitor Activity” value (Lysozyme) is reported as “shown to have Lysozyme Inhibitor Activity”. For the same molecule, the “Galactose Oxidase Inhibitor Activity” value (Galactose Oxidase) was “shown to have Galactose Oxidase Inhibitor Activity”.

With CC(=O)O [CDI-047, Acetic acid] the “inhibition of Lysozyme” value (Lysozyme) was “shown to inhibit Lysozyme”, the “RFU Reading (60 mins)” value (Lysozyme) was 33.53 RFU and the “Lysozyme Inhibitor Activity” value (Lysozyme) was “shown to have Lysozyme Inhibitor Activity”. The “Galactose Oxidase Inhibitor Activity” value (Galactose Oxidase) was “shown to have Galactose Oxidase Inhibitor Activity”.

B1: Soybeans: primary soybean protease inhibitor, 20.7-22.3 kDa (protein, UniProt P01070 25-205, looked up)
Trypsin inhibitor A: DFVLDNEGNPLENGGTYYILSDITAFGGIRAAPTGNERCPLTVVQSRNELDKGIGTIISSPYRIRFIAEGHPLSLKFDSFAVIMLCVGIPTEWSVVEDLPEGPAVKIGENKDAMDGWFRLERVSDDEFNNYKLVFCPQQAEDDKCGDIGISIDHDDGTRRLVVSKNKPLVVQFQKLDKESL
In the case of B1, the Inhibitory power (protease) is listed as 1.2 times times weight.
